Measured values published in publication PMC8615111, “Phenolic Thiazoles with Antioxidant and Antiradical Activity. Synthesis, In Vitro Evaluation, Toxicity, Electrochemical Behavior, Quantum Studies and Antimicrobial Screening” (Antioxidants, 2021).
Where two headings read alike, the source gives them in different places.

Tests used:
[1] = Cyclic voltammetry of the compounds on graphite-based SPE; assay type: physicochemical; conditions: CV, 0.1 M HClO4, graphite-based SPE
Description: The evaluated compounds’ stock solutions used were prepared at a concentration of 5 mM. To test their redox properties, dilutions of 0.5 mM and 2 mM were prepared in 0.1 M HClO4 electrolyte (pH = 1.2). Screen-printed electrodes (SPEs; Metrohm DropSens, Oviedo, Spain) (planar electrodes) with graphite and gold working electrodes were used. Cyclic voltammetry (CV) and differential pulse voltammetry (DPV) were the electrochemical methods applied. The experimental conditions for each test are mentioned near the corresponding data (Appendix A).
In Figure 2, the cyclic voltammograms (CVs) for each of the compounds considered in this study, compared individually with the voltammogram obtained in the electrolyte (0.1 M HClO4), are presented. Thus, the oxidation/reduction peaks corresponding to the electrochemical transformations suffered by each compound can be observed in the potential range considered, in an acidic environment (low pH). From Figure 3, where the voltammograms of all eight compounds were presented together, a similarity is observed between 8a and 8b, and among the other compounds, whereas 5a and 5b can be noted as having the highest oxidation signals.

C. albicans ATCC 102310 = assay: Antifungal activity, modified microdilution; assay type: cell-based; conditions: Candida albicans, ATCC102310
Description: For evaluating the antimicrobial activity of the compounds, […] aerobic microbial strains were used: S. aureus ATCC 25923, S. pyogenes ATCC 19615, P. aeruginosa ATCC 27853, S. enterica ISM 83/37, S. typhimurium ATCC 14028, E. coli ATCC 8739, E. coli ATCC 25922, and C. albicans ATCC 102310 obtained from Food Biotechnology Laboratory, Life Sciences Institute, University of Agricultural Sciences, and Veterinary Medicine Cluj Napoca, where the experiment was performed. The antimicrobial activity of the compounds was determined using a modified microdilution technique, and the followed protocol was previously reported.
The antimicrobial activity of the final compounds, against seven aerobic microbial strains (S. aureus ATCC 25923, S. pyogenes ATCC 19615, P. aeruginosa ATCC 27853, S. enterica ISM 83/37, S. typhimurium ATCC 14028, E. coli ATCC 8739, E. coli ATCC 25922), and a fungal strain (C. albicans ATCC 102310), was determined using a modified microdilution technique.
The results of the antimicrobial activity evaluation of the compounds, in comparison to norfloxacin and chloramphenicol used as standard antibiotics and fluconazole used as reference antifungal, are depicted in Table 10.

HaCaT cells = assay: Cytotoxicity determination, MTT method; assay type: cell-based; conditions: Homo sapiens, HaCaT cells, MTT, 24 h
Description: To determine the cytotoxic action of the obtained compounds 5[…], and 8a-b, a normal human keratinocytes cell line was used (HaCaT keratinocytes, CLS-300493, Eppelheim, Germany). HaCaT cells were cultured in Dulbecco's Modified Eagle Media (DMEM) supplemented with 1% L-glutamine, 1% penicillin-streptomycin, and 5% fetal bovine serum. At 80% confluence, the cells were transferred to 96 well plates at a confluence of 12×10^3 cells/well and left to attach for 24 h at 37°C and 5% CO2 in a humidified atmosphere. […] After 24 h, the culture media was replaced with 100 μL of MTT solution at a final concentration of 5 μg/mL/well and left to interact with the cells for 2 h in the incubator. After this, the MTT solution was replaced with 100 μL of isopropanol, left to dissolve the formazan crystals for 5 min, and read at 550 and 630 nm using a BioTek Epoch plate reader (BioTek Instruments, Winooski, VT, USA) and Gen5 software (version 1.09).

S. pyogenes ATCC 19615 = assay: Antimicrobial activity, modified microdilution; assay type: cell-based; conditions: Streptococcus pyogenes, ATCC19615
S. aureus ATCC 25923 = assay: Antimicrobial activity, modified microdilution; assay type: cell-based; conditions: Staphylococcus aureus, ATCC25923
[2] = system: S. typhimurium ATCC 14028; assay: Antimicrobial activity, modified microdilution; assay type: cell-based; conditions: Salmonella enterica
P. aeruginosa ATCC 27853 = assay: Antimicrobial activity, modified microdilution; assay type: cell-based; conditions: Pseudomonas aeruginosa, ATCC27853
S. enterica ISM 83/37 = assay: Antimicrobial activity, modified microdilution; assay type: cell-based; conditions: Salmonella enterica, ISM83/37
E. coli ATCC 25922 = assay: Antimicrobial activity, modified microdilution; assay type: cell-based; conditions: Escherichia coli, ATCC25922
[3] = NO˙ radical scavenging assay (Griess reaction); assay type: biochemical; conditions: 100 µL of test solution 1 mg/mL in DMSO, 150 min, pH 7.4
Description: Scavenging of the NO˙ radical was performed according to some adapted protocols reported in the literature, based on the nitroprusside decomposition at physiological pH and colorimetric quantification of the resulted products using the Griess reaction.
Over 200 µL of 10 mM sodium nitroprusside, 100 µL of test solutions (1 mg/mL in DMSO), and 400 µL phosphate-buffered saline (PBS, pH = 7.4) were added. The mixture was then incubated at room temperature for 150 min on a rotating shaker (GFL Gesellschaft für Labortechnik, Burgwedel, Germany). After that, 1 mL of sulfanilic acid 0.33% in 20% acetic acid was added and after 5 min, 1 mL of naphthylethylenediamine […] 0.1% was added to all test tubes. After 30 min, the absorbance of the sample, given by the chromophore (azo dye) formed during the diazotization of nitrite ions resulting from decomposition of sodium nitroprusside with sulfanilic acid and coupled with naphthylethylenediamine, was measured at 546 nm. The NO˙ radical scavenging activity of the tested compounds was calculated using Equation (3):(3) NO˙ scavenging (%)=control absorbance−sample absorbance/control absorbance×100

Cu^2+ chelation assay = assay type: biochemical

Row | Structure (SMILES) | Eox (V) ([1]; 1st oxidation peak) | Iox (μA) ([1]; 1st oxidation peak) | Eox (V) ([1]; 2nd oxidation peak) | Iox (μA) ([1]; 2nd oxidation peak) | Ired (μA) ([1]; 3rd reduction peak) | IC50 (HaCaT cells; read-out: IC50) [µM] | IC50 (HaCaT cells; read-out: IC50 (µg/mL)) [µg/mL] | MIC (S. enterica ISM 83/37) [µg/mL] | % of NO˙ Scavenged [3] [%] | Chelation Capacity (%), cupric ions (Cu^2+ chelation assay; 3.36 µg/mL) [%] | Chelation Capacity (%), cupric ions (Cu^2+ chelation assay; 6.72 µg/mL) [%] | Chelation Capacity (%), cupric ions (Cu^2+ chelation assay; 10.08 µg/mL) [%] | Chelation Capacity (%), cupric ions (Cu^2+ chelation assay; 13.44 µg/mL) [%] | Chelation Capacity (%), cupric ions (Cu^2+ chelation assay; 16.80 µg/mL) [%] | Eox (V) ([1]; 3rd oxidation peak) | Iox (μA) ([1]; 3rd oxidation peak) | MIC (C. albicans ATCC 102310) [µg/mL] | MIC (S. pyogenes ATCC 19615) [µg/mL] | MIC (S. aureus ATCC 25923) [µg/mL] | MIC [2] [µg/mL] | other results
1 | Cl.Oc1ccc(/C=N/Nc2nc(-c3ccc(O)c(O)c3)cs2)c(O)c1 [Compound 8b, (E)-2-(2,4-dihydroxybenzylidene)-1-(4-(3,4-dihydroxyphenyl)thiazol-2-yl)hydrazin-1-ium chloride] | 0.166 | 2.19 | 0.508 | 40.99 | −40.37 | 22.5 | 8.54 | > 100 | 46.30 | 7.34 | 11.97 | 16.62 | 20.30 | 26.71 | – | – | – | – | – | – | Ered (V) ([1]; 3rd reduction peak): 0.325 V; MIC (C. albicans ATCC 102310; C. albicans ATCC 102310, read-out: MIC): > 100 µg/mL; MIC (S. pyogenes ATCC 19615; S. pyogenes ATCC 19615, read-out: MIC): > 100 µg/mL; MIC (S. aureus ATCC 25923; S. aureus ATCC 25923, read-out: MIC): > 100 µg/mL; MIC ([2]; S. typhimurium ATCC 14028, read-out: MIC): > 100 µg/mL; MIC (P. aeruginosa ATCC 27853; P. aeruginosa ATCC 27853, read-out: MIC): 31.2 µg/mL; MIC (E. coli ATCC 25922; E. coli ATCC 25922, read-out: MIC): > 100 µg/mL
2 | Br.NC(=O)c1cc(-c2csc(N/N=C/c3ccc(O)cc3O)n2)ccc1O [Compound 7b, (E)-1-(4-(3-carbamoyl-4-hydroxyphenyl)thiazol-2-yl)-2-(2,4-dihydroxybenzylidene) hydrazin-1-ium bromide] | 0.267 | 13.22 | 0.412 | 15.78 | 0.201 | 93.9 | 42.4 | > 100 | 26.33 | 7.23 | 11.41 | 14.46 | 19.40 | 22.72 | 0.543 | 6.385 | > 100 | > 100 | > 100 | > 100 | Ired (μA) ([1]; 1st reduction peak): −0.119 μA; Ired (μA) ([1]; 2nd reduction peak): 0.078 μA; MIC (P. aeruginosa ATCC 27853): 15.6 µg/mL; MIC (E. coli ATCC 25922): > 100 µg/mL
3 | C/C(=N\Nc1nc(C)cs1)c1ccc(O)cc1O [Compound 5a, Dihydroxy-Phenyl-Thiazol-Hydrazinium chloride] | – | – | 0.384 | 50.85 | −2.17 | 102 | 30.7 | > 100 | 36.26 | 10.74 | 14.51 | 20.10 | 28.62 | 33.67 | 0.632 | 19.21 | > 100 | > 100 | > 100 | > 100 | Ered (V) ([1]; 1st reduction peak): −0.075 V; Ired (μA) ([1]; 1st reduction peak): −6.62 μA; Ered (V) ([1]; 3rd reduction peak): 0.256 V; MIC (P. aeruginosa ATCC 27853): 31.2 µg/mL; MIC (E. coli ATCC 25922): > 100 µg/mL
4 | Br.C/C(=N\Nc1nc(-c2ccc(O)c(C(N)=O)c2)cs1)c1ccc(O)cc1O [Compound 7a, (E)-1-(4-(3-carbamoyl-4-hydroxyphenyl)thiazol-2-yl)-2-(1-(2,4-dihydroxyphenyl)ethylidene)hydrazin-1-ium bromide] | 0.269 | 14.75 | 0.374 | 2.06 | – | 75.5 | 35.1 | > 100 | 21.44 | 8.76 | 16.70 | 26.63 | 34.35 | 38.88 | 0.561 | 2.69 | > 100 | 31.2 | 62.4 | > 100 | Ered (V) ([1]; 2nd reduction peak): 0.205 V; Ired (μA) ([1]; 2nd reduction peak): −4.65 μA; MIC (P. aeruginosa ATCC 27853): 3.9 µg/mL; MIC (E. coli ATCC 25922): > 100 µg/mL
